Publication PMC10033419, “Blocking NS3–NS4B interaction inhibits dengue virus in non-human primates” (Nature, 2023)
Values joined by “and” are separate entries in the source; they are usually repeats but may differ in a detail not shown here. Equal values may be shown once.

Experiments:
Assay type in all cases: in vivo, AG129 mice
DENV-3/C0360/94 = experiment: Viraemia/survival study; conditions: for Viral RNA copies/mL [Log10]: Fig. 2j Viraemia DENV-3, BID, individual animals 1-5, LOD is 1.7
Method: (§1) The UTMB is an Association for the Assessment and Accreditation of Laboratory and Care (AAALAC) International accredited facility. All of the procedures were reviewed and approved by the UTMB Institutional Animal Care and Use Committee. […] Male and female AG129 mice (n = 10 per group; aged 6–8 weeks) were housed at a maximum of 5 mice per cage in individually ventilated cages with food and water provided ad libitum. Allocation to experimental groups was performed randomly. […] Approximately 1 h after the first treatment, all of the animals were challenged by i.p. injection with 10^7 PFU DENV-1/West Pac, DENV-3/C0360/94 or DENV-4/703/4. Pretreatment with anti-flavivirus antibody 4G2 to increase disease severity by induction of ADE was not required as infection with DENV-1/West Pac, DENV-3/C0360/94 or DENV-4/703/4 in our models leads to severe disease (requiring euthanasia after >20% loss of body weight). Each treatment group was subdivided into two smaller groups (groups A and B; n = 5 each). Blood was collected on day 3 after infection from group A to measure viral RNA; samples were collected by retro-orbital bleed on day 3 after infection around 30 min before the morning treatment. In parallel, animals (groups A and B) were followed for lethality throughout the experiment. Viral RNA isolation from plasma and RT–qPCR analysis was performed using the methods described previously.
(§2) For the viral kinetics studies and the delayed-treatment studies, a batch approach was applied to calculate the viral load AUC using the PΚ R package. This package estimates a mean AUC value for settings in which the animals are measured at varying timepoints within a treatment group. […] The AUC was calculated using the LOD (2.6 log10 copies per ml) as the lowest limit. […] In the delayed-treatment studies, the total viral load AUC for each of the compound-treated groups was calculated and compared with that of the vehicle-treated group. […] P values were adjusted using the Bonferroni multiple-comparison correction method. Note that P values lower than 0.0001 were rounded to 0.0001. For survival studies of DENV-1-, DENV-3- or DENV-4-infected mice, Fisher’s exact tests were used on day 6. P values were adjusted using the Bonferroni multiple-comparison correction method.

DENV-1/West Pac = experiment: Viraemia/survival study; conditions: for Viral RNA copies/mL [Log10]: Fig. 2i Viraemia DENV-1, BID, individual animals 1-5, LOD is 1.7
Method: as §1, §2

DENV-4/703/4 = experiment: Viraemia/survival study; conditions: for Viral RNA copies/mL [Log10]: Fig. 2k Viraemia DENV-4, BID, individual animals 1-5, LOD is 1.7
Method: as §1, §2

DENV-2 RL strain = experiment: Delayed-treatment study (therapeutic setting); conditions: 30 mg/kg/day, start treatment day 0 p.i., individual mice
[1] = 60 or 6 mg per kg per day b.i.d.
[2] = 60 or 6 mg per kg per day b.i.d., vehicle 0%

COc1cc(N[C@H](C(=O)c2c[nH]c3ccc(OC(F)(F)F)cc23)c2ccc(Cl)cc2OC)cc(S(C)(=O)=O)c1 [JNJ-1802]
viral RNA load day 3 vs vehicle (DENV-3/C0360/94; [1]): significantly reduced
survival until day 6 (DENV-3/C0360/94; [2]): 100%
Survival [%] (DENV-3/C0360/94; DENV-3, 6 mg/kg/day BID, day 0 post-infection): 100%
Survival [%] (DENV-3/C0360/94; DENV-3, 6 mg/kg/day BID, day 1 post-infection): 100%
Survival [%] (DENV-3/C0360/94; DENV-3, 6 mg/kg/day BID, day 2 post-infection): 100%
Survival [%] (DENV-3/C0360/94; DENV-3, 6 mg/kg/day BID, day 3 post-infection): 100%
Survival [%] (DENV-3/C0360/94; DENV-3, 6 mg/kg/day BID, day 4 post-infection): 100%
Survival [%] (DENV-3/C0360/94; DENV-3, 6 mg/kg/day BID, day 5 post-infection): 100%
Survival [%] (DENV-3/C0360/94; DENV-3, 6 mg/kg/day BID, day 6 post-infection): 100%
Survival [%] (DENV-3/C0360/94; DENV-3, 60 mg/kg/day BID, day 0 post-infection): 100%
Survival [%] (DENV-3/C0360/94; DENV-3, 60 mg/kg/day BID, day 1 post-infection): 100%
Survival [%] (DENV-3/C0360/94; DENV-3, 60 mg/kg/day BID, day 2 post-infection): 100%
Survival [%] (DENV-3/C0360/94; DENV-3, 60 mg/kg/day BID, day 3 post-infection): 100%
Survival [%] (DENV-3/C0360/94; DENV-3, 60 mg/kg/day BID, day 4 post-infection): 100%
Survival [%] (DENV-3/C0360/94; DENV-3, 60 mg/kg/day BID, day 5 post-infection): 100%
Survival [%] (DENV-3/C0360/94; DENV-3, 60 mg/kg/day BID, day 6 post-infection): 100%
Viral RNA copies/mL [Log10] (DENV-3/C0360/94; 6 mg/kg/day): 1.7 copies/mL [Log10] and 2.037 copies/mL [Log10] and 2.373 copies/mL [Log10]
Viral RNA copies/mL [Log10] (DENV-3/C0360/94; 60 mg/kg/day): 1.7 copies/mL [Log10]
viral RNA load day 3 vs vehicle (DENV-1/West Pac; [1]): significantly reduced
survival until day 6 (DENV-1/West Pac; 60 or 6 mg per kg per day b.i.d., vehicle 20%): 100%
Survival [%] (DENV-1/West Pac; DENV-1, 6 mg/kg/day BID, day 0 post-infection): 100%
Survival [%] (DENV-1/West Pac; DENV-1, 6 mg/kg/day BID, day 1 post-infection): 100%
Survival [%] (DENV-1/West Pac; DENV-1, 6 mg/kg/day BID, day 2 post-infection): 100%
Survival [%] (DENV-1/West Pac; DENV-1, 6 mg/kg/day BID, day 3 post-infection): 100%
Survival [%] (DENV-1/West Pac; DENV-1, 6 mg/kg/day BID, day 4 post-infection): 100%
Survival [%] (DENV-1/West Pac; DENV-1, 6 mg/kg/day BID, day 5 post-infection): 100%
Survival [%] (DENV-1/West Pac; DENV-1, 6 mg/kg/day BID, day 6 post-infection): 100%
Survival [%] (DENV-1/West Pac; DENV-1, 60 mg/kg/day BID, day 0 post-infection): 100%
Survival [%] (DENV-1/West Pac; DENV-1, 60 mg/kg/day BID, day 1 post-infection): 100%
Survival [%] (DENV-1/West Pac; DENV-1, 60 mg/kg/day BID, day 2 post-infection): 100%
Survival [%] (DENV-1/West Pac; DENV-1, 60 mg/kg/day BID, day 3 post-infection): 100%
Survival [%] (DENV-1/West Pac; DENV-1, 60 mg/kg/day BID, day 4 post-infection): 100%
Survival [%] (DENV-1/West Pac; DENV-1, 60 mg/kg/day BID, day 5 post-infection): 100%
Survival [%] (DENV-1/West Pac; DENV-1, 60 mg/kg/day BID, day 6 post-infection): 100%
Viral RNA copies/mL [Log10] (DENV-1/West Pac; 6 mg/kg/day): 6.011 copies/mL [Log10] and 6.0187 copies/mL [Log10] and 7.037 copies/mL [Log10] and 6.709 copies/mL [Log10] and 6.244 copies/mL [Log10]
Viral RNA copies/mL [Log10] (DENV-1/West Pac; 60 mg/kg/day): 4.624 copies/mL [Log10] and 4.061 copies/mL [Log10] and 4.479 copies/mL [Log10] and 4.465 copies/mL [Log10] and 4.103 copies/mL [Log10]
viral RNA load day 3 vs vehicle (DENV-4/703/4; [1]): significantly reduced
survival until day 6 (DENV-4/703/4; [2]): 100%
Survival [%] (DENV-4/703/4; DENV-4, 6 mg/kg/day BID, day 0 post-infection): 100%
Survival [%] (DENV-4/703/4; DENV-4, 6 mg/kg/day BID, day 1 post-infection): 100%
Survival [%] (DENV-4/703/4; DENV-4, 6 mg/kg/day BID, day 2 post-infection): 100%
Survival [%] (DENV-4/703/4; DENV-4, 6 mg/kg/day BID, day 3 post-infection): 100%
Survival [%] (DENV-4/703/4; DENV-4, 6 mg/kg/day BID, day 4 post-infection): 100%
Survival [%] (DENV-4/703/4; DENV-4, 6 mg/kg/day BID, day 5 post-infection): 100%
Survival [%] (DENV-4/703/4; DENV-4, 6 mg/kg/day BID, day 6 post-infection): 100%
Survival [%] (DENV-4/703/4; DENV-4, 60 mg/kg/day BID, day 0 post-infection): 100%
Survival [%] (DENV-4/703/4; DENV-4, 60 mg/kg/day BID, day 1 post-infection): 100%
Survival [%] (DENV-4/703/4; DENV-4, 60 mg/kg/day BID, day 2 post-infection): 100%
Survival [%] (DENV-4/703/4; DENV-4, 60 mg/kg/day BID, day 3 post-infection): 100%
Survival [%] (DENV-4/703/4; DENV-4, 60 mg/kg/day BID, day 4 post-infection): 100%
Survival [%] (DENV-4/703/4; DENV-4, 60 mg/kg/day BID, day 5 post-infection): 100%
Survival [%] (DENV-4/703/4; DENV-4, 60 mg/kg/day BID, day 6 post-infection): 100%
Viral RNA copies/mL [Log10] (DENV-4/703/4; 6 mg/kg/day): 1.7 copies/mL [Log10] and 4.048 copies/mL [Log10] and 3.88 copies/mL [Log10]
Viral RNA copies/mL [Log10] (DENV-4/703/4; 60 mg/kg/day): 1.7 copies/mL [Log10]
Viral Load Copies/ml (DENV-2 RL strain; blood sampling day 3 p.i.): 1.31E+03 Copies/ml and 3.02E+03 Copies/ml
Viral Load Log10 (DENV-2 RL strain; blood sampling day 3 p.i.): 3.1316 Log10 and 3.1169 Log10 and 3.4801 Log10
Viral Load Copies/ml (DENV-2 RL strain; blood sampling day 4 p.i.): 1.31E+04 Copies/ml and 1.96E+04 Copies/ml and 3.27E+03 Copies/ml and 2.07E+03 Copies/ml
Viral Load Log10 (DENV-2 RL strain; blood sampling day 4 p.i.): 4.1169 Log10 and 4.2930 Log10 and 3.5148 Log10 and 3.3153 Log10
